According to ChEMBL document CHEMBL5154671 (Eur J Med Chem, 2022):
The source made the active and inactive calls. The rule behind the calls is not given here.

Columns and labels:
[1] = target: T1, Peroxisome proliferator-activated receptor alpha (Homo sapiens, UniProt Q07869); assay: Agonist activity at human PPARalpha measured by dual luciferase reporter gene assay
T1 sequence (Q07869 whole entry): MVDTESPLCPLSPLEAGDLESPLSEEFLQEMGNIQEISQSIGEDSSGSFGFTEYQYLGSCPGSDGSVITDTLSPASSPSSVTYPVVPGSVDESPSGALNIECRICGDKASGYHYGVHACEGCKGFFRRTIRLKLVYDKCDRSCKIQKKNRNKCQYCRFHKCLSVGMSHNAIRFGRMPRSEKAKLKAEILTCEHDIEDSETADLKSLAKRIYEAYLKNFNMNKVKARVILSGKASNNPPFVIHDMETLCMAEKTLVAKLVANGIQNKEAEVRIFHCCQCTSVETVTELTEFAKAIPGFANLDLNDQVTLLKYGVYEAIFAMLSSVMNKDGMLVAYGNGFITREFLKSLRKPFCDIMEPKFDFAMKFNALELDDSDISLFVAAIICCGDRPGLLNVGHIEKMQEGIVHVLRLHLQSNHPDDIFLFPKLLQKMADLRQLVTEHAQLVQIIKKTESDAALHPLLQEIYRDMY

[2] = target: T2, Peroxisome proliferator-activated receptor delta (Homo sapiens, UniProt Q03181); assay: Agonist activity at human PPARdelta measured by dual luciferase reporter gene assay
T2 sequence (Q03181 whole entry): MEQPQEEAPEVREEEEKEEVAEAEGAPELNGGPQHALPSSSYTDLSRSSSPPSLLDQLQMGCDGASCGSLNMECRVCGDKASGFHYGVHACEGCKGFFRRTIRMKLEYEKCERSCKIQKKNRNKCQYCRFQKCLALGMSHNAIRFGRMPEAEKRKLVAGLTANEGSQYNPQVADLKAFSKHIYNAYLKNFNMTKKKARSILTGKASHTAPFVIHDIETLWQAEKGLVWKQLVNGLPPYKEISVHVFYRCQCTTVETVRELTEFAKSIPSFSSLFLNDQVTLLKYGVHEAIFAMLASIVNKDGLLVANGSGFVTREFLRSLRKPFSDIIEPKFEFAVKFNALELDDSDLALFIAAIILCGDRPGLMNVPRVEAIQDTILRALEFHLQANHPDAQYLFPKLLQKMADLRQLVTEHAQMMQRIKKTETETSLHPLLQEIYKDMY

[3] = target: Free fatty acid receptor 1 (Homo sapiens, UniProt O14842); assay: Agonist activity at human FFA1 expressed in CHO cells measured by FLIPR assay; format: functional, cell-based
Chain of Free fatty acid receptor 1 (O14842 whole entry): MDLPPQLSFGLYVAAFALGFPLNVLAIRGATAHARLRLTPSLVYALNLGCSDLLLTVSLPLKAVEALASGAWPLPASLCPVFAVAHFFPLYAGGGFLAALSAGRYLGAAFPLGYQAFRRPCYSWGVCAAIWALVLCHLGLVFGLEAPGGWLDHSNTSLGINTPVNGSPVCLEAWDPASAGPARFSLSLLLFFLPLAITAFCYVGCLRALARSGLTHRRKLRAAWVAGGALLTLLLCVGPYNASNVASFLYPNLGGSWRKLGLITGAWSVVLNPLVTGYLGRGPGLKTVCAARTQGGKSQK

[4] = target: T3, Peroxisome proliferator-activated receptor gamma (Homo sapiens, UniProt P37231); assay: Agonist activity at human PPARgamma measured by dual luciferase reporter gene assay
T3 sequence (P37231 whole entry): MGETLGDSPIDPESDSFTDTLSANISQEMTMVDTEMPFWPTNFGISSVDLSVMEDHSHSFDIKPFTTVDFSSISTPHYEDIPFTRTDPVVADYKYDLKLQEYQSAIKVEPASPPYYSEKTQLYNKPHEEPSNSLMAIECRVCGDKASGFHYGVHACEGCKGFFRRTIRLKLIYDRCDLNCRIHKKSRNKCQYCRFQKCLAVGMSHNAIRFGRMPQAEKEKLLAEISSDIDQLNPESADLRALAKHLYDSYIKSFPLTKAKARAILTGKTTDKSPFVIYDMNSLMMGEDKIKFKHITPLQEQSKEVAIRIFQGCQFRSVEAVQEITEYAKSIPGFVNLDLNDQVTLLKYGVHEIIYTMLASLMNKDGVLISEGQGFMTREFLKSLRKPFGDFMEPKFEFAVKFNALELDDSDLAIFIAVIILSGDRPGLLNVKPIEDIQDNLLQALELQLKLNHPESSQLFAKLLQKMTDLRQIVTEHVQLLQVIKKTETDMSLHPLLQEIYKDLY

Mus musculus [5] = assay: Hypolipidemic activity in Triton1339W-induced hyperlipidemic ICR mouse model assessed as reduction in plasma TG level at 80 mg/kg, administered once daily for 5 days; format: functional, organism-based; conditions: time 5.0 day
Mus musculus [6] = assay: Hypolipidemic activity in Triton1339W-induced hyperlipidemic ICR mouse model assessed as reduction in plasma TC level at 80 mg/kg, administered once daily for 5 days; format: functional, organism-based; conditions: time 5.0 day
[7] = Clearance in rat liver microsomes in presence of NADPH measured by LC/MS analysis; format: ADME, Microsome; conditions: read-out: CLH
[8] = Half-life in rat liver microsomes in presence of NADPH measured by LC/MS analysis; format: ADME, Microsome
Mus musculus [9] = assay: Anti-NASH activity in high-fat/high-sugar diet and CCl4-induced nonalcoholic steatohepatitis male C57BL/6 mouse assessed as decrease in disease activity score at 100 mg/kg, po administered for 4 weeks; format: functional, organism-based
Mus musculus [10] = assay: Anti-NASH activity in high-fat/high-sugar diet and CCl4-induced nonalcoholic steatohepatitis male C57BL/6 mouse assessed as decrease in hepatocyte ballooning score at 100 mg/kg, po administered for 4 weeks; format: functional, organism-based
Mus musculus [11] = assay: Anti-NASH activity in high-fat/high-sugar diet and CCl4-induced nonalcoholic steatohepatitis male C57BL/6 mouse assessed as decrease in lobular inflammation score at 100 mg/kg, po administered for 4 weeks; format: functional, organism-based
Mus musculus [12] = assay: Anti-NASH activity in high-fat/high-sugar diet and CCl4-induced nonalcoholic steatohepatitis male C57BL/6 mouse assessed as decrease in F4/80 expression at 100 mg/kg, po administered for 4 weeks; format: functional, organism-based
Mus musculus [13] = assay: Protection against liver fibrosis in high-fat/high-sugar diet and CCl4-induced nonalcoholic steatohepatitis male C57BL/6 mouse assessed as decrease in collagen area at 100 mg/kg, po administered for 4 weeks; format: functional, organism-based
Mus musculus [14] = assay: Protection against liver fibrosis in high-fat/high-sugar diet and CCl4-induced nonalcoholic steatohepatitis male C57BL/6 mouse assessed as decrease in alpha-SMA expression in liver at 100 mg/kg, po administered for 4 weeks; format: functional, organism-based
Mus musculus [15] = assay: Anti-fibrotic activity in high-fat/high-sugar diet and CCl4-induced nonalcoholic steatohepatitis male C57BL/6 mouse assessed as decrease in COL1A1 mRNA expression at 100 mg/kg, po administered for 4 weeks; format: functional, organism-based
Mus musculus [16] = assay: Protection against CCl4-induced liver fibrosis in male C57BL/6 mouse assessed as decrease in collagen area in liver at 250 mg/kg measured by masson staining; format: functional, organism-based
Mus musculus [17] = assay: Protection against CCl4-induced liver fibrosis in male C57BL/6 mouse assessed as decrease in hepatic hydroxyproline content at 250 mg/kg […]; format: functional, organism-based

With `COc1ccc2ccc(-c3cccc(OCc4ccc(OCC(=O)O)c(F)c4)c3)cc2c1` the EC50 [1] was 15.6 µM and the EC50 [2] was 10.8 µM.
In the case of `O=C(O)COc1ccc(COc2cccc(-c3nc4cc(Cl)ccc4o3)c2)cc1F`, the EC50 [3] is reported as 6.8 µM, the EC50 [1] is reported as 10.8 µM and the EC50 [2] is reported as 20.8 µM.
Work on `COc1ccc(/C=C/c2cc(OC)cc(OCCCCCCCC(=O)O)c2)cc1` yielded an EC50 [3] of 1.8 µM, an EC50 [1] of 7.5 µM and an EC50 [4] of 25.8 µM. The EC50 [2] was 6.5 µM, the Activity (Mus musculus [5]) was “Active” and the Activity (Mus musculus [6]) was “Active”. For the same compound, the microsomal CLint [7] was 72 µL/min/mg, the half-life [8] was 19.3 min and the Activity (Mus musculus [9]) was “Active”. For the same compound, the Activity (Mus musculus [10]) was “Active”, the Activity (Mus musculus [11]) was “Active” and the Activity (Mus musculus [12]) was “Active”. For the same compound, the Activity (Mus musculus [13]) was “Active”, the Activity (Mus musculus [14]) was “Active” and the Activity (Mus musculus [15]) was “Active”.
For `COc1ccc(/C=C/c2cc(OC)cc(OCc3ccc(OC(C)(C)C(=O)O)c(F)c3)c2)cc1`, the EC50 [1] was 2.35 µM, the EC50 [4] was 20.6 µM and the EC50 [2] was 2.8 µM. The Activity (Mus musculus [5]) was “Active” and the Activity (Mus musculus [6]) was “Active”.
In the case of `COc1ccc(-c2cccc(OCc3ccc(OCC(=O)O)c(F)c3)c2)cc1`, the EC50 [3] is reported as 0.4 µM and the Activity (Mus musculus [6]) is reported as “Active”.
Work on `Cc1ccc2[nH]c(-c3cccc(OCCCCCCCC(=O)O)c3)nc2c1` yielded an EC50 [1] of 6.3 µM and an EC50 [4] of 10.2 µM.
For `O=C(O)COc1ccc(COc2cccc(-c3ccc4cc(OCC5CC5)ccc4c3)c2)cc1F`, the EC50 [1] was 9.6 µM and the EC50 [2] was 7.2 µM.
For `CCOc1ccc(/C=C/c2cc(OCC)cc(OCc3ccc(OCC(=O)O)c(F)c3)c2)cc1`, the EC50 [3] was 4.2 µM, the EC50 [1] was 12.9 µM and the EC50 [4] was 22.6 µM. The EC50 [2] was 5.7 µM, the Activity (Mus musculus [5]) was “Active” and the Activity (Mus musculus [6]) was “Active”.
For `COc1ccc(/C=C/c2cc(OC)cc(OCc3ccc(OC(C)C(=O)O)c(F)c3)c2)cc1` (stereo not given), the EC50 [1] was 8.72 µM, the EC50 [4] was 18.2 µM and the EC50 [2] was 4.5 µM. For the same compound, the Activity (Mus musculus [5]) was “Active” and the Activity (Mus musculus [6]) was “Active”.
`O=C(O)COc1ccc(COc2cccc(-c3nc4ccccc4s3)c2)cc1F` gave an EC50 [3] of 2.1 µM, an EC50 [1] of 7.8 µM and an EC50 [2] of 10.2 µM.
`COc1ccc2cc(-c3cccc(OCc4ccc(OCC(=O)O)c(F)c4)c3)ccc2c1` gave an EC50 [1] of 10.5 µM and an EC50 [2] of 7.8 µM.
In the case of `Cc1ccc(=O)n(-c2ccccc2)c1`, the Activity (Mus musculus [16]) is reported as “Active” and the Activity (Mus musculus [17]) is reported as “Active”.
`COc1ccc(/C=C/c2cc(OC)cc(OCc3ccc(OCC(=O)O)cc3)c2)cc1` showed an EC50 [3] of 10.3 µM, an EC50 [1] of 20.8 µM and an EC50 [4] of 15.6 µM. The EC50 [2] was 8.75 µM, the Activity (Mus musculus [5]) was “Active” and the Activity (Mus musculus [6]) was “Active”.
`O=C(O)COc1ccc(COc2cc(/C=C/c3ccc(OCC4CC4)cc3)cc(OCC3CC3)c2)cc1F` gave an EC50 [1] of 10.3 µM, an EC50 [4] of 24.5 µM and an EC50 [2] of 8.37 µM. The Activity (Mus musculus [5]) was “Active” and the Activity (Mus musculus [6]) was “Active”.
`COc1ccc(/C=C/c2cc(OC)cc(OCc3ccc(OCC(=O)O)c(C)c3)c2)cc1` gave an EC50 [1] of 7.6 µM, an EC50 [4] of 20.7 µM and an EC50 [2] of 5.16 µM. For the same compound, the Activity (Mus musculus [5]) was “Active” and the Activity (Mus musculus [6]) was “Active”.
